# Reference: the supplement of paper PMC10883282
# ± gives the standard deviation of the averaged measurements.
# Tested on: SW872
# Assay: relative viability vs DMSO control (72 h) (fraction); higher = more viable cells
# Outline: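 ATPLite readings, expressed as percent growth and averaged over up to triplicate wells, provided relative viability. Before reading, sarcoma cell lines seeded in 384-well plates to reach 80–90% confluence received 2.5 µl of serially diluted compound after 24 h, from source plates of 10 mM to 0.0002 mM. Plates were held 72 h at 37 °C, 5% CO2, with 0.1% DMSO as vehicle and a 5 µM positive control. The data were rescaled to 1 for full and 0 for none.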
Compound,relative viability (0.00017 µM),relative viability (0.00051 µM),relative viability (0.00152 µM),relative viability (0.00457 µM),relative viability (0.01372 µM),relative viability (0.04115 µM),relative viability (0.1235 µM),relative viability (0.3704 µM),relative viability (1.111 µM),relative viability (3.333 µM),relative viability (10 µM)
CC(C)N1CCN(Cc2cnc(-c3cc(-c4cccc5[nH]ccc45)cc4[nH]ncc34)o2)CC1 [Nemiralisib],0.975 ± 0.035,0.982 ± 0.036,0.945 ± 0.043,0.945 ± 0.018,0.916 ± 0.033,0.949 ± 0.042,0.952 ± 0.018,0.896 ± 0.014,0.819 ± 0.032,0.622 ± 0.043,0.448 ± 0.017
Cc1ccc(NC(=O)c2ccc(CN3CCN(C)CC3)cc2)cc1Nc1nc(-c2cccnc2)cs1 [Masitinib],1.03 ± 0.044,1.06 ± 0.028,1.04 ± 0.029,1.03 ± 0.041,1.04 ± 0.038,1.06 ± 0.03,1.006 ± 0.006,0.979 ± 0.021,0.798 ± 0.015,0.519 ± 0.0078,0.127 ± 0.012
CCc1cc2c(cc1N1CCC(N3CCOCC3)CC1)C(C)(C)c1[nH]c3cc(C#N)ccc3c1C2=O [Alectinib],1.03 ± 0.043,1.02 ± 0.063,1.05 ± 0.069,1.04 ± 0.036,1.07 ± 0.053,1.06 ± 0.046,1.09 ± 0.062,1.07 ± 0.069,1.09 ± 0.058,1.07 ± 0.076,1.08 ± 0.065
COc1cc2nccc(Oc3ccc(NC(=O)Nc4cc(C)on4)c(Cl)c3)c2cc1OC [Tivozanib],1.07 ± 0.073,1.07 ± 0.026,1.04 ± 0.031,1.06 ± 0.038,1.08 ± 0.031,1.09 ± 0.039,1.08 ± 0.044,1.1 ± 0.051,1.07 ± 0.028,1.03 ± 0.036,0.691 ± 0.031
